Laboratory results as given in ChEMBL document CHEMBL1145893, “Three-dimensional quantitative structure-activity relationship analysis of propafenone-type multidrug resistance modulators: influence of variable selection on test set predictivity” (J Med Chem, 2003).

test system: CCRF-CEM/VCR-1000; assay: In vitro multi drug resistance (MDR) reversal inhibitory activity against CCRF-CEM/VCR-1000 cell line; assay type: functional, cell-based; settings: Homo sapiens

| SMILES | IC50 |
| --- | --- |
| OC(COc1ccccc1C(O)CCc1ccccc1)CN1CCOCC1 (stereo not given) | 9540 nM |
| CCCNCC(O)c1oc2ccccc2c1CC (stereo not given) | 439000 nM |
| CCCNCC(O)c1oc2ccccc2c1CCc1ccccc1 (stereo not given) | 58100 nM |
| CCCNCC(O)COc1ccc(O)cc1C(=O)CCc1ccccc1 (stereo not given) [5-HYDROXY PROPAFENONE] | 3020 nM |
| CC(=O)c1ccc(OCC(O)CN2CCN(c3ccc(F)cc3)CC2)cc1 (stereo not given) | 11900 nM |
| CCC(=O)c1ccccc1OCC(O)CN1CCOCC1 (stereo not given) | 207000 nM |
| O=C(c1ccccc1)c1ccccc1OCC(O)CN1CCC(O)(c2ccccc2)CC1 (stereo not given) | 190 nM |
| CC(=O)c1ccccc1OCC(O)CN1CCN(c2ccc(F)cc2)CC1 (stereo not given) | 3840 nM |
| COC(CCc1ccccc1)c1ccccc1OCC(O)CN1CCOCC1 (stereo not given) | 1800 nM |
| O=C(CCc1ccccc1)c1ccccc1OCC(O)CNc1ccccc1 (stereo not given) | 6470 nM |
| CN(C)CC(O)COc1ccccc1C(=O)CCc1ccccc1 (stereo not given) | 2640 nM |
| CC(=O)c1cccc(OCC(O)CN2CCN(c3ccc(F)cc3)CC2)c1 (stereo not given) | 11400 nM |
| COc1ccccc1N1CCN(CC(=O)c2oc3ccccc3c2CCc2ccccc2)CC1 | 16600 nM |
| CC(=O)c1cccc(OCC(O)CN2CCOCC2)c1 (stereo not given) | 118000 nM |
| CC(=O)c1ccc(OCC(O)CN2CCOCC2)cc1 (stereo not given) | 302000 nM |
| O=C(CCc1ccccc1)c1ccc(OCC(O)CN2CCOCC2)cc1 (stereo not given) | 6860 nM |
| CC(=O)c1cccc(OCC(O)CN2CCCCC2)c1 (stereo not given) | 9070 nM |
| CC(C)NCCc1oc2ccccc2c1CCc1ccccc1 | 20200 nM |
| O=C(CCc1ccccc1)c1ccccc1OCC(O)CN1CCOCC1 (stereo not given) | 3750 nM |
| O=C(CCc1ccccc1)c1ccc(OCC(O)CN2CCN(c3ccc(F)cc3)CC2)cc1 (stereo not given) | 2530 nM |
| O=C(CCc1ccccc1)c1cc(O)ccc1OCC(O)CN1CCCCC1 (stereo not given) | 2300 nM |
| CC(=O)c1ccc(OCC(O)CN2CCCCC2)cc1 (stereo not given) | 75900 nM |
| CC(=O)c1ccccc1OCC(O)CN1CCC(O)(c2ccccc2)CC1 (stereo not given) | 2830 nM |
| COC(=O)c1ccc(NCC(O)COc2ccccc2C(=O)CCc2ccccc2)cc1 (stereo not given) | 2530 nM |
| CCC(=O)c1ccccc1OCC(O)CN1CCCCC1 (stereo not given) | 6840 nM |
| CCCNCCc1oc2ccccc2c1CCc1ccccc1 | 8560 nM |
| O=C(CCc1ccccc1)c1ccccc1OCC(O)CN1CCCC1 (stereo not given) | 1820 nM |
| O=C(CCc1ccccc1)c1ccccc1OCC(O)CN1CCC(O)(c2ccccc2)CC1 (stereo not given) | 70 nM |

Other lines, results leading:

| IC50 | SMILES |
| --- | --- |
| 170 nM | O=C(CCc1ccccc1)c1cc(OCc2ccccc2)ccc1OCC(O)CN1CCCCC1 (stereo not given) |
| 340 nM | O=C(CCc1ccccc1)c1ccccc1OCC(O)CNC1CCCCC1 (stereo not given) |
| 910 nM | CCN(CC)CC(O)COc1ccccc1C(=O)CCc1ccccc1 (stereo not given) |
| 880 nM | COc1ccccc1N1CCN(CC(O)c2oc3ccccc3c2CCc2ccccc2)CC1 (stereo not given) |
| 540 nM | CC(C)N(CC(O)COc1ccccc1C(=O)CCc1cccc2ccccc12)C(C)C (stereo not given) |
| 680 nM | O=C(CCc1cccc2ccccc12)c1ccccc1OCC(O)CN1CCOCC1 (stereo not given) |
| 680 nM | O=C(CCc1ccccc1)c1ccccc1OCC(O)CN1CCCCC1 (stereo not given) |
| 720 nM | O=C(CCc1cccc2ccccc12)c1ccccc1OCC(O)CNCCC(c1ccccc1)c1ccccc1 (stereo not given) |
| 1360 nM | O=C(CCc1ccccc1)c1ccc(OCC(O)CN2CCCCC2)cc1 (stereo not given) |
| 750 nM | COC(CCc1ccccc1)c1ccccc1OCC(O)CNCCC(c1ccccc1)c1ccccc1 (stereo not given) |
| 210 nM | O=C(CCc1ccccc1)c1ccccc1OCC(O)CN1CCN(c2ccccc2)CC1 (stereo not given) |
| 1340 nM | OC(COc1ccccc1C(O)CCc1ccccc1)CN1CCCCC1 (stereo not given) |
| 310 nM | CC(C)N(CC(O)COc1ccccc1C(=O)CCc1ccccc1)C(C)C (stereo not given) |
| 1020 nM | O=C(CCc1ccccc1)c1ccccc1OCC(O)CNC(c1ccccc1)c1ccccc1 (stereo not given) |
| 720 nM | O=C(CCc1ccccc1)c1ccccc1OCC(O)CNCCC(c1ccccc1)c1ccccc1 (stereo not given) |
| 120 nM | COc1cccc(N2CCN(CC(O)COc3ccccc3C(=O)CCc3ccccc3)CC2)c1 (stereo not given) |
| 770 nM | COC(CCc1ccccc1)c1ccccc1OCC(O)CN1CCCCC1 (stereo not given) |
| 1120 nM | O=C(CCc1ccccc1)c1cccc(OCC(O)CN2CCN(c3ccc(F)cc3)CC2)c1 (stereo not given) |
| 420 nM | O=C(c1ccccc1)c1ccccc1OCC(O)CN1CCN(c2ccc(F)cc2)CC1 (stereo not given) |
| 760 nM | O=C(CCc1ccccc1)c1ccccc1OCC(O)CNCc1ccccc1 (stereo not given) |
| 490 nM | CCCN(C)CC(O)COc1ccccc1C(=O)CCc1ccccc1 (stereo not given) |

| IC50 | SMILES |
| --- | --- |
| 140 nM | O=C(CCc1ccccc1)c1ccccc1OCC(O)CN1CCN(c2ccc(F)cc2)CC1 (stereo not given) |
| 180 nM | COc1ccc(N2CCN(CC(O)COc3ccccc3C(=O)CCc3ccccc3)CC2)cc1 (stereo not given) |
| 80 nM | CC(C)N(CC(O)COc1ccc(OCc2ccccc2)cc1C(=O)CCc1ccccc1)C(C)C (stereo not given) |
| 920 nM | CC(C)N(CC(O)COc1ccc(C(=O)CCc2ccccc2)cc1)C(C)C (stereo not given) |
| 90 nM | O=C(CCc1ccccc1)c1ccccc1OCC(O)CNCC(c1ccccc1)c1ccccc1 (stereo not given) |
| 230 nM | COC(CCc1ccccc1)c1ccccc1OCC(O)CN1CCN(c2ccc(F)cc2)CC1 (stereo not given) |
| 660 nM | COC(CCc1ccccc1)c1ccccc1OCC(O)CN(C(C)C)C(C)C (stereo not given) |
| 1740 nM | CC(C)N(CC(O)COc1ccccc1C(O)CCc1ccccc1)C(C)C (stereo not given) |
| 390 nM | O=C(CCc1ccccc1)c1cccc(OCC(O)CN2CCCCC2)c1 (stereo not given) |
| 670 nM | OC(COc1ccccc1C(O)CCc1ccccc1)CN1CCN(c2ccc(F)cc2)CC1 (stereo not given) |
| 110 nM | COc1ccccc1N1CCN(CC(O)COc2ccccc2C(=O)CCc2ccccc2)CC1 (stereo not given) |
| 120 nM | O=C(CCc1ccccc1)c1cc(OCc2ccccc2)ccc1OCC(O)CN1CCN(Cc2ccccc2)CC1 (stereo not given) |
| 530 nM | O=C(CCc1ccccc1)c1cc(O)ccc1OCC(O)CN1CCN(Cc2ccccc2)CC1 (stereo not given) |
| 170 nM | O=C(CCc1cccc2ccccc12)c1ccccc1OCC(O)CN1CCCCC1 (stereo not given) |
| 70 nM | O=C(CCc1cccc2ccccc12)c1ccccc1OCC(O)CN1CCC(O)(c2ccccc2)CC1 (stereo not given) |
| 1080 nM | CCCNCC(O)COc1ccccc1C(=O)CCc1ccccc1 (stereo not given) [PROPAFENONE] |
| 1040 nM | CC(C)N(CC(O)COc1ccc(O)cc1C(=O)CCc1ccccc1)C(C)C (stereo not given) |
| 50 nM | Cc1ccccc1N1CCN(CC(O)COc2ccccc2C(=O)CCc2ccccc2)CC1 (stereo not given) |
| 380 nM | O=C(CCc1ccccc1)c1ccccc1OCC(O)CN1CCN(Cc2ccccc2)CC1 (stereo not given) |
| 300 nM | CCC(=O)c1ccccc1OCC(O)CN1CCC(O)(c2ccccc2)CC1 (stereo not given) |
| 110 nM | CCCNCC(O)COc1ccc(OCc2ccccc2)cc1C(=O)CCc1ccccc1 (stereo not given) |
